These results are taken from US10718761B2, “Phosphatase or kinase activity detection composition and detection method” (INDUSTRY-UNIVERSITY COOPERATION FOUNDATION HANYANG …, priority 2014, dated 2020).

The test system of this assay is TAMRA-PEPPKA(p). The assay can be described thus: Zn(II)-mediated QD-FRET between QD525 and TAMRA-labelled phosphopeptide. Format: binding. The conditions noted are these: QD 2 nM. On the procedure: A synthetic peptide substrate labeled with 5(6)-carboxytetramethylrhodamine at the N-terminus (TAMRA-LRRASLG; TAMRA-PEPPKA) was compared with its phosphorylated form (TAMRA-LRRApSLG; TAMRA-PEPPKA(p)) (FIG. 12B). The FRET ratio was determined by the acceptor (FA) emission area (integrated from 550 to 650 nm) relative to the donor (FD) emission area (integrated from 450 to 550 nm). The concentrations of QD, TAMRA-PEPPKA(p) (or TAMRA-PEPPKA), and ZnCl2 were 2 nM, 80 nM and 100 μM, respectively. The QD-FRET spectra were obtained at an excitation wavelength of 380 nm.
The change in FRET between QD and TAMRA-PEPPKA(p) according to a function of Zn^2+ concentration was calculated. Furthermore, the relative FRET percentage was calculated by dividing the experimental FRET ratio by the maximal FRET ratio (0.74). The concentrations of QD and TAMRA-PEPPKA(p) were 2 nM and 80 nM, respectively. Excitation/emission wavelengths of QD-FRET (FIG. 12C (i)), QD (FIG. 12C (ii)), and TAMRA-PEPPKA(p) (FIG. 12C (iii)) were obtained at 380/580, 380/525, 530/580 nm, respectively.

Turning to `[Cl-].[Cl-].[Zn+2]` [Zn(II), ZnCl2], the “FRET ratio (FA/FD)” value (TAMRA-PEPPKA(p) 80 nM, ZnCl2 100 μM, excitation 380 nm) is on record as 0.65. Further, the Kd (free Zn(II) ions, TAMRA-PEPPKA(p) 80 nM (1:40 molar ratio), read-out: binding affinity Kd for TAMRA-PEPPKA(p), based on the FRET efficiency) is 8.8 µM.
